The record followed here is patent US10413535B2, “Pharmaceutical compositions comprising an integrin ALPHA4 antagonist for use in treating ocular inflammatory conditions” (AXEROVISION, INC., priority 2015, dated 2019).

One assay has as its target T1, Human α4β1 (Homo sapiens, UniProt P05556+P13612).
T1 construct: characterized in human J6 cells which express VLA-4; endogenous in cells; host or cells: Jurkat J6 cells (human lymphoblast cell line)
In words: J6 saturation binding assay (filtration) with [3H]GW559090. To be noted: [3H]GW559090, J6 cells; geometric mean and 95% CL, 4 experiments. How it is done:
(§1) Jurkat J6 cells (human lymphoblast cell line) were grown as a suspension culture in RPMI 1640 supplemented with FCS (10%) and glutamine (2 mM). RPMI8866 cells (human B lymphoid cell line) were grown as a suspension culture in RPMI 1640 supplemented with FCS (10%) and glutamine (2 mM). RBL-2H3 cells (rat basophilic cell line) were cultured in Eagle's MEM plus Earles salts supplemented with 2 mM L-glutamine, 1 mM sodium pyruvate, 1× non-essential amino acids, 1 mM Na pyruvate 10% heat inactivated foetal calf serum.
Binding of the compound of formula I was characterized in human J6 cells which express VLA-4. J6 cells were harvested by centrifugation for 5 minutes at 500 g and resuspended in assay buffer (50 mM HEPES, pH 7.5, 100 mM NaCl, 2 mM glucose, 1 mM MnCl2). Each well contained 1×10^6 cells and either 10 μM cold GW559090, to define the NSBs (non-specific binding), or buffer. […] Bound [3H]GW559090 was separated from free by rapid vacuum filtration through pre-soaked Whatman GF/B filters, followed by three washes in ice-cold buffer, scintillant was then added to filter discs and disintegrations per minute measured on a Beckman Scintillation counter. […] GW559090 added for each concentration of the saturation curve was measured by counting disintegrations from a 50 μL aliquot of the label dilution range.

A further assay relates to conjunctival CD4 T cells. The assay is described as follows: Conjunctival T cell infiltration (CD4 immunohistochemistry), desiccating stress model. The assay is classed as in vivo, mouse. To be noted: topical 30 mg/mL, 60 μg per eye, 5 days DS. How it is done: Female C57BL/6 mice, aged 6 to 8 weeks, were subjected to DS for 5 days (DS5) as described previously (de Paiva et al., 2006b; Niederkorn et al., 2006). Topical bilateral treatment with 1 eye drop per eye (2 μL volume) or subcutaneous injection (4 μL volume), 2 times per day, was initiated on day 1 concurrently with DS and continued through day 4. Treatment with the compound of formula I or dexamethasone phosphate 0.1% was compared to correspondingly treated vehicle controls. Mice were randomized to receive one of the test articles. […] Treatment effects were assessed on corneal staining with Oregon Green Dextran (OGD); expression of inflammatory markers in ocular surface tissues by real time PCR; cell population analysis in draining cervical lymph nodes by FACS analysis; conjunctival T cell infiltration by immunohistochemistry.
For immunohistochemistry, the eyes and adnexa of 5 mice/group (n=5) were excised, embedded in optimal cutting temperature (OCT compound; VWR, Suwanee, Ga.), and flash frozen in liquid nitrogen. […] Positively stained cells were counted in the goblet cell rich area of the conjunctiva, over a length of at least 500 μm in the epithelium for a distance of 500 μm using image-analysis software (NIS Elements Software, version 3.0, BR, Nikon). […]

The target of the next assay is T2, α4β1-CS-1 (Homo sapiens, UniProt P05556+P13612).
T2 construct: characterized in human J6 cells which express VLA-4; endogenous in cells; host or cells: Jurkat J6 cells (human lymphoblast cell line)
T2 sequence (P13612 34-1032): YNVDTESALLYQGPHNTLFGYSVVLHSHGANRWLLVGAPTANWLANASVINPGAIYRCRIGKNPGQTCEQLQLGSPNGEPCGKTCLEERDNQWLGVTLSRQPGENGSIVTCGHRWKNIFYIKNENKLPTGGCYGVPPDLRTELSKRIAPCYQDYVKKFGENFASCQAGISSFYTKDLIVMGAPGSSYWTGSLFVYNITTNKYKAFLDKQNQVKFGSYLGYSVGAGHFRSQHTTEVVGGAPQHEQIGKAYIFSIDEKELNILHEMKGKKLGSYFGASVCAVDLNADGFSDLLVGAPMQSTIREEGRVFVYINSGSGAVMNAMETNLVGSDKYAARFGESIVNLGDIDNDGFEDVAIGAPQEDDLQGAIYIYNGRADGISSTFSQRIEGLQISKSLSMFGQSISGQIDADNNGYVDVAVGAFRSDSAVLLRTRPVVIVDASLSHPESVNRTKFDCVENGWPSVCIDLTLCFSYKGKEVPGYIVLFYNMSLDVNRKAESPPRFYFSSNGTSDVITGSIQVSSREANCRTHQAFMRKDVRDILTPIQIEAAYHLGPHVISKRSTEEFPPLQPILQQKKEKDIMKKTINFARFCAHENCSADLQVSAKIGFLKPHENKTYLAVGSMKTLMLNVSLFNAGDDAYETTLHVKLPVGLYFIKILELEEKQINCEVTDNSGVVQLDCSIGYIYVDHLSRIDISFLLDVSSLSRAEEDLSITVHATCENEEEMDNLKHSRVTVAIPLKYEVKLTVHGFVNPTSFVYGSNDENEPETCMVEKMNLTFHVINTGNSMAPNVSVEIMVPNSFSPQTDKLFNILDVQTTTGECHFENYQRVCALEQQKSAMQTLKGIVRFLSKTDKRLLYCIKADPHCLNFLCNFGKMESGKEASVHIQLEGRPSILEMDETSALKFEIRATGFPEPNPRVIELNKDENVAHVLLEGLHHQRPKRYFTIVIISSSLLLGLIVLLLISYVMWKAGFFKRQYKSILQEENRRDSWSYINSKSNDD
T2 sequence (P05556 21-798): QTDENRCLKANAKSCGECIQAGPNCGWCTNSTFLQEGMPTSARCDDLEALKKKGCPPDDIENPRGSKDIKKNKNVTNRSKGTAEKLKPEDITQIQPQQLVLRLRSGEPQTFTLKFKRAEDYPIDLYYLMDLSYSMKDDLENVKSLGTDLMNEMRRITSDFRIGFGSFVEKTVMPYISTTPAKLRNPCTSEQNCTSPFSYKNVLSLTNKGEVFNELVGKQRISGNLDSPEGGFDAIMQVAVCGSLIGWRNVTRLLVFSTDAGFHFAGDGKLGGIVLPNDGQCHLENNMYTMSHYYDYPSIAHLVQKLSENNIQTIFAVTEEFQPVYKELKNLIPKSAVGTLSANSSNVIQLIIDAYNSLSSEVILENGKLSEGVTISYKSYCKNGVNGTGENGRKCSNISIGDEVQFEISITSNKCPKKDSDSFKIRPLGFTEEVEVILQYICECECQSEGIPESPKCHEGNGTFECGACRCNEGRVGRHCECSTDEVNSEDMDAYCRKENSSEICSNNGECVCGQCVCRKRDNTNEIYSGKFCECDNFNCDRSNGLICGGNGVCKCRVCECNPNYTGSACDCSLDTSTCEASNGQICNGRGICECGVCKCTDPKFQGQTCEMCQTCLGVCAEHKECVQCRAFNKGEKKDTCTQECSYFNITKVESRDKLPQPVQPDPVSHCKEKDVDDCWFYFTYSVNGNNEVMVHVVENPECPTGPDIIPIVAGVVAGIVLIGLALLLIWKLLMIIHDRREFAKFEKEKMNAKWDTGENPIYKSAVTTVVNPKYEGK
In words: CS-1 cell adhesion assay, Jurkat J6 cells. Format: cell-based. Particulars: J6 cells to CS-1; read-out: Inhibition of cell adhesion (IC50). How it is done:
as §1
Polystyrene 96-well microtitre plates were coated with CS-1 (connecting segment 1, a cell attachment domain of fibronectin) at a concentration of 0.01 mg/mL in bicarbonate buffer overnight at 4° C. The solution was aspirated and the plates washed twice with PBS. The plates were then incubated at room temperature in the presence of 3% BSA for 60 min, ‘flicked’ to expel the BSA and washed twice in bicarbonate buffer. J6 or RPMI cells (as required) were labelled with the fluorescent dye BCECF-AM (10 μM and 6×10^6 cells/mL) for 10 min at 37° C. before the excess was removed by centrifugation at 500 g for 5 min and the cells resuspended at a cell concentration of 1.2×10^7 cells/mL in HBSS. Equal volumes of HBSS containing the compound of formula I (over concentration range 19.0 pM to 5 μM) and cells were added to the CS-1 coated plates. […] The plates were counted in a Wallac Viktor.

T1 sequence (P13612 34-1032): as the sequence (P13612 34-1032) above
T1 sequence (P05556 21-798): as the sequence (P05556 21-798) above

The Kd is a measure of binding affinity in units of concentration. Read a high Kd as a looser complex. The term IC50 denotes the midpoint of a concentration-inhibition curve. For the molecule `Cc1ccccc1OCC(=O)N[C@@H](CC(C)C)C(=O)N[C@@H](Cc1ccc(OC(=O)N2CCC(C(N)=O)CC2)cc1)C(=O)O` [GW559090, (2S)-3-[4-({[4-(Aminocarbonyl)-1-piperidinyl]carbonyl}oxy)phenyl]-2-[((2S)-4-methyl-2-{[2-(2-methylphenoxy)acetyl]amino}pentanoyl)amino]propanoic acid], the Kd on Human α4β1 turned out to be 0.19 nM. For the same molecule, in the assay on conjunctival CD4 T cells, the “Conjunctival T cell infiltration (cell density)” value is listed as “decreases”. The IC50 on α4β1-CS-1 came to 8.04 nM.
